The values that follow come from patent publication US12448368B2, “Indole compounds as androgen receptor modulators” (NIDO BIOSCIENCES, INC., priority 2020, dated 2025).

A word on the IC50: it is the concentration at which inhibition is half-maximal.

For the assay, the target named is T1, androgen receptor (AR) (Homo sapiens, UniProt P10275, T878A).
T1 construct: LNCaP cells expressing ARR2PB-FireflyLuc and CMV-RenillaLuc; endogenous in cells; host or cells: LNCaP cells carrying ARR2PB-FireflyLuc and CMV-RenillaLuc reporters
T1 sequence (P10275 1-920 T878A): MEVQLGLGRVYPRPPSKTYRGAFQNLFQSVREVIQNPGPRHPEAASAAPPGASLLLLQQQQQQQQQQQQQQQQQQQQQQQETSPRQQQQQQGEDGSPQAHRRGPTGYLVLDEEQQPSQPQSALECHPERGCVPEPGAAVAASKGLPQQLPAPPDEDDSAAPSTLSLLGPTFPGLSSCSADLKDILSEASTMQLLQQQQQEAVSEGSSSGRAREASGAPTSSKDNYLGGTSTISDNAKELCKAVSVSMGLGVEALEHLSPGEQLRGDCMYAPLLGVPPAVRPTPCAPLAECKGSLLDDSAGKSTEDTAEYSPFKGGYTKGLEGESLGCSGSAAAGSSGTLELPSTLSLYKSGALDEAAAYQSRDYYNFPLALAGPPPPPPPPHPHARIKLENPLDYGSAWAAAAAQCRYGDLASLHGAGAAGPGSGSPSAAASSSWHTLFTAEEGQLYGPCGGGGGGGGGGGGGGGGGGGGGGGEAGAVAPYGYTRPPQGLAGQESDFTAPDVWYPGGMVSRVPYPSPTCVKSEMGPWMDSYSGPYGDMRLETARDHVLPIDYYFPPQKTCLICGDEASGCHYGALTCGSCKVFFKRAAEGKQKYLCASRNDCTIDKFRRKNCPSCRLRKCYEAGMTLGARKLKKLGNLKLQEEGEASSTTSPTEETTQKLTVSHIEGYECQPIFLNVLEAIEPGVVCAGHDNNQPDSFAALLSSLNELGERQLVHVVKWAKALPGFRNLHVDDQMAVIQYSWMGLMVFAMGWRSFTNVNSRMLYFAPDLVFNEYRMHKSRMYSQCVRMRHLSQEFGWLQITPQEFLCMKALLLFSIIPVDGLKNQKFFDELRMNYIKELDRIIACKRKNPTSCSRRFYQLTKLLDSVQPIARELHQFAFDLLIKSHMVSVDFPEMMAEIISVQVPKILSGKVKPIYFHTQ
The assay can be described thus: AR reporter assay in LNCaP cells expressing ARR2PB-FireflyLuc and CMV-RenillaLuc, antagonist mode (% remaining activity, IC50). Type of assay: cell-based. To be noted: 48 h at 37° C., class symbols A-D, read-out: IC50. Put shortly: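 LNCaP cells carrying ARR2PB-firefly and CMV-Renilla luciferase reporters were treated 48 h at 37 °C with compound plus 0.5 nM DHT. Signals were normalised between 0.5 nM DHT alone and 10 uM enzalutamide + DHT to give % remaining activity, and IC50 was obtained by non-linear regression.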
(In a reporter assay the amount or activity of a reporter protein is the signal.)
Consider `CC1NC(=O)c2ccc(-c3c[nH]c4c(C#N)cccc34)nc21` (stereo not shown) [Compound 205], for which the IC50 was 100 to 1000 nM. Then `CC1(C)NC(=O)c2ccc(-c3c[nH]c4c(C#N)cccc34)nc21` [Compound 206], with 100 to 1000 nM. `Cc1nc(-c2c[nH]c3c(Cl)cccc23)ccc1N` [Compound 207]: the IC50 lay within 100 to 1000 nM. The result for `Cc1nc(-c2c[nH]c3c(S(C)(=O)=O)cccc23)ccc1N` [Compound 208] reads greater than 10000 nM; that for `Nc1ccc(-c2c[nH]c3cc(F)c(F)cc23)nc1Cl` [Compound 209], 100 to 1000 nM; that for `Cc1nc(-c2c[nH]c3c(C#N)c(F)ccc23)ccc1N` [Compound 210], less than 100 nM. Then `COc1ccc2c(-c3ccc(N)c(C)n3)c[nH]c2c1C#N` [Compound 211], with greater than 10000 nM. In the case of `Cc1cncc(-c2c[nH]c3c(Cl)cccc23)n1` [Compound 212], the IC50 is less than 100 nM. Then `N#Cc1cccc2c(-c3cncc(N4CCC4)n3)c[nH]c12` [Compound 213], with 100 to 1000 nM. Then `CCc1nc(-c2c[nH]c3c(C#N)cccc23)cnc1N` [Compound 214], with 100 to 1000 nM; and `COc1cncc(-c2c[nH]c3c(C#N)cccc23)n1` [Compound 215], with less than 100 nM; and `CC1(C)NC(=O)c2ccc(-c3c[nH]c4cc(F)ccc34)nc21` [Compound 216], with 100 to 1000 nM. For `CN1C(=O)c2ccc(-c3c[nH]c4c(Cl)cccc34)nc2C1(C)C` [Compound 217], the IC50 fell in the range of 100 to 1000 nM. Then `CC1(C)NC(=O)c2ccc(-c3c[nH]c4c(Cl)cccc34)nc21` [Compound 218], with 100 to 1000 nM; and `Cc1nc(-c2c[nH]c3c(C#N)cccc23)ccc1NCC(C)(C)O` [Compound 219], with 100 to 1000 nM. Then `Cc1nc(-c2c[nH]c3c(C#N)cccc23)ccc1NCCN` [Compound 220], with 100 to 1000 nM; and `COCC(C)Nc1ccc(-c2c[nH]c3c(C#N)cccc23)nc1C` (stereo not shown) [Compound 221], with 100 to 1000 nM.

As to `N#Cc1cccc2c(-c3cnc(OC4CCNC4)cn3)c[nH]c12` (stereo not shown) [Compound 222], the half-maximal inhibitory concentration (IC50) is 1000 to 10000 nM. With `Cc1nc(-c2c[nH]c3c(C#N)cccc23)cnc1OC1CC2CCC1N2` (stereo not shown) [Compound 223], the IC50 lay within 1000 to 10000 nM.

On to `Cc1nc(-c2c[nH]c3c(C#N)cccc23)cnc1OC1C2CNCC21` (stereo not shown) [Compound 224], for which the IC50 was in the range of 1000 to 10000 nM.

Turning to `Cc1nc(OC2C3CNCC32)cnc1-c1c[nH]c2c(C#N)cccc12` (stereo not shown) [Compound 225], the IC50 is greater than 10000 nM. For `N#Cc1cccc2c(-c3cnc(NC4CCNC4)c(OC(F)F)n3)c[nH]c12` (stereo not shown) [Compound 226], the IC50 was 100 to 1000 nM. Then `Cc1nc(-c2c[nH]c3c(C#N)cccc23)cnc1N1CCC(N)C1` (stereo not shown) [Compound 227], with greater than 10000 nM; and `COCC(COC)Nc1ncc(-c2c[nH]c3c(C#N)cccc23)nc1C` [Compound 228], with greater than 10000 nM.

Regarding `N#Cc1cccc2c(-c3ccc(OC4CCNC4)c(F)c3)c[nH]c12` (stereo not shown) [Compound 229], the IC50 fell in the range of 100 to 1000 nM. On to `Cc1nc(-c2c[nH]c3c(C#N)cccc23)ccc1OC1CCNC1` (stereo not shown) [Compound 230], for which the IC50 fell in the range of 100 to 1000 nM. The result for `Cc1nc(-c2c[nH]c3c(C#N)cccc23)cnc1NC1CCNCC1` [Compound 231] reads greater than 10000 nM.

On to `Cc1nc(-c2c[nH]c3c(C#N)cccc23)cnc1NC1CCCNC1` (stereo not shown) [Compound 232], for which the IC50 is greater than 10000 nM. The result for `Cc1nc(-c2c[nH]c3c(C#N)cccc23)cnc1OC1CCNCC1` [Compound 233] reads greater than 10000 nM; that for `Cc1nc(-c2c[nH]c3c(C#N)cccc23)cnc1OC1CCCNC1` (stereo not shown) [Compound 234], greater than 10000 nM; that for `CC1(C)c2nc(-c3c[nH]c4c(C#N)cccc34)ccc2C(=O)N1CCCO` [Compound 235], greater than 10000 nM. The result for `CC1(C)c2nc(-c3c[nH]c4c(C#N)cccc34)ccc2C(=O)N1CCCCO` [Compound 236] reads greater than 10000 nM; that for `N#Cc1cccc2c(-c3ccc(OC4CCNC4)c(Cl)n3)c[nH]c12` (stereo not shown) [Compound 237], 100 to 1000 nM; that for `Cc1nc(-c2c[nH]c3c(Cl)cccc23)ccc1OC1CCNC1` (stereo not shown) [Compound 238], 1000 to 10000 nM. As to `Cc1nc(-c2c[nH]c3c(C#N)cccc23)cnc1OC1CNC1` [Compound 239], the IC50 is 1000 to 10000 nM. Then `CC(=O)N1CC(Oc2ncc(-c3c[nH]c4c(C#N)cccc34)nc2C)C1` [Compound 240], with 100 to 1000 nM; and `N#Cc1cccc2c(-c3ccc(OC4CCNC4)c(Cl)c3)c[nH]c12` (stereo not shown) [Compound 241], with 1000 to 10000 nM; and `N#Cc1cccc2c(-c3cnc(OC4CCNC4)c(OC(F)F)n3)c[nH]c12` (stereo not shown) [Compound 244], with greater than 10000 nM. The result for `N#Cc1cccc2c(-c3cnc(OC4CCNC4)c(C(F)(F)F)n3)c[nH]c12` (stereo not shown) [Compound 245] reads 1000 to 10000 nM; that for `Cc1nc(-c2c[nH]c3c(C#N)cccc23)cnc1OC[C@H]1[C@@H]2CNC[C@@H]21` [Compound 246], 100 to 1000 nM; that for `Cc1nc(-c2c[nH]c3c(C#N)cccc23)cnc1OC[C@@H]1[C@@H]2CNC[C@@H]21` [Compound 247], 1000 to 10000 nM. As to `Cc1nc(-c2coc3c(Cl)cccc23)cnc1N` [Compound 248], the IC50 was in the range of 1000 to 10000 nM. The result for `CCc1nc(-c2c[nH]c3c(C#N)cccc23)cnc1OC1CCNC1` (stereo not shown) [Compound 249] reads greater than 10000 nM; that for `COc1nc(-c2c[nH]c3c(C#N)cccc23)cnc1NC1CCNC1` (stereo not shown) [Compound 250], 100 to 1000 nM. Then `CCOc1nc(-c2c[nH]c3c(C#N)cccc23)cnc1NC1CCNC1` (stereo not shown) [Compound 251], with 1000 to 10000 nM; and `N#Cc1cccc2c(-c3ccc(OC4CCNC4)c(C(F)(F)F)n3)c[nH]c12` (stereo not shown) [Compound 252], with 1000 to 10000 nM; and `CCc1nc(-c2c[nH]c3c(Cl)cccc23)cnc1OC1CCNC1` (stereo not shown) [Compound 253], with greater than 10000 nM. On to `Fc1cc(-c2c[nH]c3c(Cl)cccc23)ccc1OC1CCNC1` (stereo not shown) [Compound 254], for which the IC50 lay within 1000 to 10000 nM. Regarding `Cc1nc(-c2n[nH]c3cc(F)c(F)cc23)ccc1OC1CCNC1` (stereo not shown) [Compound 255], the IC50 fell in the range of 1000 to 10000 nM. For the compound `Cc1nc(-c2n[nH]c3c(Cl)cccc23)ccc1OC1CCNC1` (stereo not shown) [Compound 256], the IC50 fell in the range of 1000 to 10000 nM. As to `CC(=O)N1CCC(Oc2ncc(-c3c[nH]c4c(Cl)cccc34)nc2C)C1` (stereo not shown) [Compound 257], the IC50 is 100 to 1000 nM. Turning to `CC(=O)N1CCC(Oc2ncc(-c3c[nH]c4c(C(F)(F)F)cccc34)nc2C)C1` (stereo not shown) [Compound 258], the IC50 lay in the range of 100 to 1000 nM.

As to `CC(=O)N1CCC(Oc2ncc(-c3c[nH]c4c(C#N)cccc34)nc2Cl)C1` (stereo not shown) [Compound 259], the IC50 lay in the range of 100 to 1000 nM. Then `CC(=O)N1CCC(Oc2ccc(-c3c[nH]c4c(C#N)cccc34)nc2C)C1` (stereo not shown) [Compound 260], with 100 to 1000 nM; and `CC(=O)N1CCC(Oc2ccc(-c3c[nH]c4c(C#N)cccc34)nc2Cl)C1` (stereo not shown) [Compound 261], with 100 to 1000 nM; and `CC(=O)N1CCC(Oc2ccc(-c3c[nH]c4c(C#N)cccc34)nc2C(F)(F)F)C1` (stereo not shown) [Compound 262], with 100 to 1000 nM. The result for `CC(=O)N(C)CCOc1ncc(-c2c[nH]c3c(Cl)cccc23)nc1C` [Compound 263] reads 100 to 1000 nM; that for `CC1(C)NC(=O)c2ccc(-c3c[nH]c4c(C#N)cccc34)cc21` [Compound 264], 100 to 1000 nM. Then `COc1nc(-c2c[nH]c3c(C#N)cccc23)cnc1NC1CCN(C(C)=O)C1` (stereo not shown) [Compound 265], with less than 100 nM.

For the compound `CC1(CO)NC(=O)c2ccc(-c3c[nH]c4c(C#N)cccc34)nc21` (stereo not shown) [Compound 266], the IC50 is greater than 10000 nM. In the case of `CCc1nc(-c2c[nH]c3c(C#N)cccc23)cnc1OCCN` [Compound 267], the IC50 was greater than 10000 nM. As for `CCc1nc(-c2c[nH]c3c(C#N)cccc23)cnc1OC1CCN(C(C)=O)C1` (stereo not shown) [Compound 268], the IC50 was 100 to 1000 nM. The result for `CC(=O)N1CCC(Oc2ncc(-c3c[nH]c4c(C#N)cccc34)nc2C(F)(F)F)C1` (stereo not shown) [Compound 269] reads 100 to 1000 nM. Take `CC1(C)NC(=O)c2cnc(-c3c[nH]c4c(C#N)cccc34)cc21` [Compound 270]: the IC50 is greater than 10000 nM. With `CC1(C)NC(=O)c2ncc(-c3c[nH]c4c(C#N)cccc34)cc21` [Compound 271], the IC50 is greater than 10000 nM. Regarding `CC(=O)N1C[C@@H](F)[C@H](Oc2ncc(-c3c[nH]c4c(C#N)cccc34)nc2C)C1` [Compound 272], the IC50 was in the range of 100 to 1000 nM. The result for `Cc1nc(-c2c[nH]c3c(Cl)cccc23)cnc1O[C@@H]1CNC[C@H]1F` [Compound 273] reads 100 to 1000 nM.
